This assay concerns genotype A, "Long" strain RSV. Description: RSV-A assay (CPE, ATPlite readout in Hep-2 cells). The assay is classed as cell-based. The settings on record: human respiratory syncytial virus, HEp-2, Hep-2 cells, genotype A "Long" strain RSV, MOI 0.1; read-out: Human RSV-A (“Long” strain) EC50. The method in brief:
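Hep-2 cells (8,000/well) received 2-fold serial compound dilutions in duplicate and RSV Long strain at MOI 0.1. After 5 days' incubation, cell health was read as ATP by ATPlite luminescence, with virus-only and uninfected controls defining max and minimum CPE; EC50 reported.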
Background: In ATP-based viability assays light output follows the ATP content of the culture.
`CC(C)(O)CNC(=O)[C@@]1(C)COc2c1cc([C@@](O)(CNC(=O)c1ccc3nc(N)sc3c1)C(F)(F)F)nc2-c1ccc(F)c(Cl)c1` [Example 500]: the EC50 (in general, the concentration needed to bring the measured effect to its halfway point) is under 200 nM.
To `COc1cc(C(=O)NC[C@](O)(c2cc3c(c(-c4ccc(F)cc4)n2)OC[C@]3(C)C(=O)NCC(C)(C)O)C(F)(F)F)cc2sc(N)nc12` [Example 502] belongs under 200 nM; to `COc1cc(C(=O)NC[C@](O)(c2cc3c(c(-c4ccc(F)c(C)c4)n2)OC[C@]3(C)C(=O)NCC(C)(C)O)C(F)(F)F)cc2cc(C)cnc12` [Example 503], under 200 nM; to `Cc1cc(-c2nc([C@@](O)(CNC(=O)c3cc(OC4CC4)c4ncccc4c3)C(F)(F)F)cc3c2OC[C@]3(C)C(=O)NCC(C)(C)O)ccc1F` [Example 504], over 200 nM.
In the case of `Cc1cc(-c2nc([C@@](O)(CNC(=O)c3ccc4nc(N)sc4c3)C(F)(F)F)cc3c2OC[C@]3(C)C(=O)NCC(C)(C)O)ccc1F` [Example 505], the EC50 was under 200 nM.
To `CC(C)(O)CNC(=O)[C@@]1(C)COc2c1cc([C@@](O)(CNC(=O)c1cc(OCC(N)=O)c3ncccc3c1)C(F)(F)F)nc2-c1ccc(F)cc1` [Example 506] belongs under 200 nM; to `Cc1cnc2c(OCC(N)=O)cc(C(=O)NC[C@](O)(c3cc4c(c(-c5ccc(F)cc5)n3)OC[C@]4(C)C(=O)NCC(C)(C)O)C(F)(F)F)cc2c1` [Example 507], under 200 nM.
Then `C#Cc1nc([C@@](O)(CNC(=O)c2ccc(OC3CC3)c(OC)c2)C(F)(F)F)cc2c1OC[C@]2(C)C(N)=O` [Example 509], with over 200 nM; and `COc1cc(C(=O)NC[C@](O)(c2cc3c(c(C#Cc4ccc(F)cc4)n2)OC[C@]3(C)C(N)=O)C(F)(F)F)ccc1OC1CC1` [Example 510], with over 200 nM; and `COc1cc(C(=O)NC[C@](O)(c2cc3c(c(C#Cc4cc(F)c(F)c(F)c4)n2)OC[C@]3(C)C(N)=O)C(F)(F)F)ccc1OC1CC1` [Example 511], with over 200 nM.
To `COc1cc(C(=O)NC[C@](O)(c2cc3c(c(C#Cc4ccc(F)c(Cl)c4)n2)OC[C@]3(C)C(N)=O)C(F)(F)F)ccc1OC1CC1` [Example 512] belongs over 200 nM; to `COc1cc(C(=O)NC[C@](O)(c2cc3c(c(C#Cc4cccc(Cl)c4F)n2)OC[C@]3(C)C(N)=O)C(F)(F)F)ccc1OC1CC1` [Example 513], over 200 nM.
For `COc1cc(C(=O)NC[C@](O)(c2cc3c(c(C#Cc4ccc(Cl)cc4F)n2)OC[C@]3(C)C(N)=O)C(F)(F)F)ccc1OC1CC1` [Example 514], the EC50 was over 200 nM.
Then `COc1cc(C(=O)NC[C@](O)(c2cc3c(c(C#Cc4ccccc4)n2)OC[C@]3(C)C(N)=O)C(F)(F)F)ccc1OC1CC1` [Example 515], with over 200 nM.
On to `COc1cc(C(=O)NC[C@](O)(c2cc3c(c(C#Cc4cccc(F)c4)n2)OC[C@]3(C)C(N)=O)C(F)(F)F)ccc1OC1CC1` [Example 516], for which the EC50 was over 200 nM.
Consider `COc1cc(C(=O)NC[C@](O)(c2cc3c(c(-c4cn(-c5ccc(F)cc5)nn4)n2)OC[C@]3(C)C(N)=O)C(F)(F)F)ccc1OC1CC1` [Example 517], for which the EC50 was over 200 nM.
Regarding `C[C@]1(C(N)=O)COc2c1cc([C@@](O)(CNC(=O)c1ccc3ncc(C4CC4)cc3c1)C(F)(F)F)nc2-c1ccc(F)cc1` [Example 525], the EC50 is under 200 nM.
Then `C[C@](F)(CNC(=O)c1cc(OC2CC2)c2ncccc2c1)c1cc2c(c(-c3ccc(F)cc3)n1)OC[C@]2(C)C(N)=O` [Example 545], with over 200 nM; and `Cc1cnc2c(NC(=O)C(F)(F)F)cc(C(=O)NC[C@](O)(c3cc4c(c(-c5ccc(F)cc5)n3)OC[C@]4(C)C(N)=O)C(F)(F)F)cc2c1` [Example 554], with under 200 nM; and `C[C@]1(C(=O)N2CCC(C#N)C2)COc2c1cc([C@@](O)(CNC(=O)c1cc(OC3CC3)c3ncccc3c1)C(F)(F)F)nc2-c1ccc(F)cc1` (stereo partly shown) [Example 555], with under 200 nM.
Then `C[C@]1(C(=O)N2CCC(=O)C2)COc2c1cc([C@@](O)(CNC(=O)c1cc(OC3CC3)c3ncccc3c1)C(F)(F)F)nc2-c1ccc(F)cc1` [Example 556], with under 200 nM; and `Cc1cnc2c(NC(=O)NC3COC3)cc(C(=O)NC[C@](O)(c3cc4c(c(-c5ccc(F)cc5)n3)OC[C@]4(C)C(N)=O)C(F)(F)F)cc2c1` [Example 559], with under 200 nM.
`C[C@]1(C(N)=O)COc2c1cc([C@@](O)(CNC(=O)c1cc(OC3CC3)c3[nH]c(=O)ccc3c1)C(F)(F)F)nc2-c1ccc(F)cc1` [Example 584]: the EC50 is under 200 nM.
Then `C[C@]1(C(N)=O)COc2c1cc([C@@](O)(CNC(=O)c1cnn3cccnc13)C(F)(F)F)nc2-c1ccc(F)cc1` [Example 585], with over 200 nM.
To `COc1ccc2[nH]nc(C(=O)NC[C@](O)(c3cc4c(c(-c5ccc(F)cc5)n3)OC[C@]4(C)C(N)=O)C(F)(F)F)c2c1` [Example 586] belongs over 200 nM; to `C[C@]1(C(N)=O)COc2c1cc([C@@](O)(CNC(=O)c1ccc3cn[nH]c3c1)C(F)(F)F)nc2-c1ccc(F)cc1` [Example 587], over 200 nM.
With `C[C@]1(C(N)=O)COc2c1cc([C@@](O)(CNC(=O)c1cc3cc(Cl)ccc3[nH]1)C(F)(F)F)nc2-c1ccc(F)cc1` [Example 589], the EC50 is over 200 nM.
To `Cn1ncc2cc(C(=O)NC[C@](O)(c3cc4c(c(-c5ccc(F)cc5)n3)OC[C@]4(C)C(N)=O)C(F)(F)F)ccc21` [Example 591] belongs under 200 nM; to `COc1ccc(CC(=O)NC[C@](O)(c2cc3c(c(-c4ccc(F)cc4)n2)OC[C@]3(C)C(N)=O)C(F)(F)F)cc1OC` [Example 592], over 200 nM; to `COc1ccc(CC(=O)NC[C@](O)(c2cc3c(c(-c4ccc(F)cc4)n2)OC[C@]3(C)C(N)=O)C(F)(F)F)cc1` [Example 593], over 200 nM.
For the compound `COc1cccc(CC(=O)NC[C@](O)(c2cc3c(c(-c4ccc(F)cc4)n2)OC[C@]3(C)C(N)=O)C(F)(F)F)c1` [Example 594], the half-maximal effective concentration (EC50) was over 200 nM.
Regarding `C[C@]1(C(N)=O)COc2c1cc([C@@](O)(CNC(=O)c1cc3c(F)cc(F)cc3[nH]1)C(F)(F)F)nc2-c1ccc(F)cc1` [Example 596], the 50% effective concentration (EC50) was under 200 nM.
Then `C[C@]1(C(N)=O)COc2c1cc([C@@](O)(CNC(=O)c1cc3c(F)cc(Cl)cc3[nH]1)C(F)(F)F)nc2-c1ccc(F)cc1` [Example 597], with under 200 nM.
To `COc1ccc2[nH]c(C(=O)NC[C@](O)(c3cc4c(c(-c5ccc(F)cc5)n3)OC[C@]4(C)C(N)=O)C(F)(F)F)cc2c1` [Example 598] belongs under 200 nM; to `C[C@]1(C(N)=O)COc2c1cc([C@@](O)(CNC(=O)c1cc3ccccc3[nH]1)C(F)(F)F)nc2-c1ccc(F)cc1` [Example 599], over 200 nM; to `C[C@]1(C(N)=O)COc2c1cc([C@@](O)(CNC(=O)c1cc3c(F)cccc3[nH]1)C(F)(F)F)nc2-c1ccc(F)cc1` [Example 601], over 200 nM.
`C[C@]1(C(N)=O)COc2c1cc([C@@](O)(CNC(=O)c1cc3c(Cl)cccc3[nH]1)C(F)(F)F)nc2-c1ccc(F)cc1` [Example 602]: the concentration for a half-maximal effect (EC50) was over 200 nM.
For `COc1cccc2cc(C(=O)NC[C@](O)(c3cc4c(c(-c5ccc(F)cc5)n3)OC[C@]4(C)C(N)=O)C(F)(F)F)[nH]c12` [Example 603], the EC50 was over 200 nM.
To `C[C@]1(C(N)=O)COc2c1cc([C@@](O)(CNC(=O)c1cc3ccc(F)cc3[nH]1)C(F)(F)F)nc2-c1ccc(F)cc1` [Example 604] belongs under 200 nM.
For `C[C@]1(C(N)=O)COc2c1cc([C@@](O)(CNC(=O)c1cc3ccc(Cl)cc3[nH]1)C(F)(F)F)nc2-c1ccc(F)cc1` [Example 605], the EC50 was under 200 nM.
As to `C[C@]1(C(N)=O)COc2c1cc([C@@](O)(CNC(=O)c1ccc3c(c1)OCC(=O)N3)C(F)(F)F)nc2-c1ccc(F)cc1` [Example 606], the EC50 was over 200 nM.
Then `C[C@]1(C(N)=O)COc2c1cc([C@@](O)(CNC(=O)c1ccc3c(c1)NCCO3)C(F)(F)F)nc2-c1ccc(F)cc1` [Example 607], with under 200 nM; and `COc1cc(C(=O)NC[C@](O)(c2cc3c(c(-c4ccc(F)cc4)n2)OC[C@]3(C)C(N)=O)C(F)(F)F)cc2cc3c(nc12)CCCC3` [Example 612], with under 200 nM; and `C[C@]1(C(N)=O)COc2c1cc([C@@](O)(CNC(=O)c1cc(Oc3ncccn3)c3ncccc3c1)C(F)(F)F)nc2-c1ccc(F)cc1` [Example 614], with over 200 nM.
To `COc1cc(C(=O)NC[C@](O)(c2cc3c(c(-c4ccc(F)cc4)n2)OC[C@]3(C)C(N)=O)C(F)(F)F)cc2cc(Br)cnc12` [Example 618] belongs under 200 nM; to `Cc1cnc2c(NC(=O)C3(C)COC3)cc(C(=O)NC[C@](O)(c3cc4c(c(-c5ccc(F)cc5)n3)OC[C@]4(C)C(N)=O)C(F)(F)F)cc2c1` [Example 620], under 200 nM; to `Cc1cnc2c(NC(=O)Nc3cccnc3)cc(C(=O)NC[C@](O)(c3cc4c(c(-c5ccc(F)cc5)n3)OC[C@]4(C)C(N)=O)C(F)(F)F)cc2c1` [Example 625], under 200 nM.
As to `Cc1ccc2cc(C(=O)NC[C@](O)(c3cc4c(c(-c5ccc(F)cc5)n3)OC[C@]4(C)C(N)=O)C(F)(F)F)cc(NC(=O)NC3CC3)c2n1` [Example 628], the EC50 was over 200 nM.
Consider `Cc1cnc2c(OCC(F)F)cc(C(=O)NC[C@](O)(c3cc4c(c(-c5ccc(F)cc5)n3)OC[C@]4(C)C(N)=O)C(F)(F)F)cc2c1` [Example 629], for which the EC50 was under 200 nM.
To `Cc1cnc2c(NC(=O)c3ncc(C)o3)cc(C(=O)NC[C@](O)(c3cc4c(c(-c5ccc(F)cc5)n3)OC[C@]4(C)C(N)=O)C(F)(F)F)cc2c1` [Example 630] belongs under 200 nM; to `Cc1cnc2c(NC(=O)NNC3CC3)cc(C(=O)NC[C@](O)(c3cc4c(c(-c5ccc(F)cc5)n3)OC[C@]4(C)C(N)=O)C(F)(F)F)cc2c1` [Example 631], under 200 nM.
To `Cc1cnc2c(NC(=O)NNCC(C)(C)O)cc(C(=O)NC[C@](O)(c3cc4c(c(-c5ccc(F)cc5)n3)OC[C@]4(C)C(N)=O)C(F)(F)F)cc2c1` [Example 632] belongs under 200 nM.

The values are drawn from US11505558B1, “Antiviral heterocyclic compounds” (Enanta Pharmaceuticals, Inc., priority 2019, dated 2022).
